{
  "source": "patent US10039729B2",
  "about": "“Use of kukoamine A and kukoamine B” (Tianjin Chase Sun Pharmaceutical Co., Ltd., priority 2010, dated 2018)",
  "key": {"[1]": {"system": "mice challenged by heat-killed Escherichia coli", "assay": "LPS and TNF-α levels in blood of mice challenged by heat-killed E. coli", "assay_type": "in vivo, Kunming mice", "settings": "for LPS level in mice blood / TNF-α level in mice blood: 40 mg/kg 10 min after heat-killed E. coli 1.1×10^10 CFU/Kg, various time points, p<0.05 or p<0.01 vs control", "experimental": "8.1 Methods: Supernatant of heat-killed E. coli was prepared according to 2.3.3 items of embodiment 2; absorbance values of the supernatant were assayed at 600 nm (OD600 value 1.0≈1.0×10^10 CFU/ml); a total of 84 Kunming mice, half male and half female, were divided into three groups randomly: heat-killed E. coli control group, KA (40 mg/kg) plus heat-killed E. coli group and KB (40 mg/kg) plus heat-killed E. coli group; each group has 28 mice; after animals were weighed, heat-killed E. coli control group was injected with heat-killed E. coli(1.1×10^10 CFU/Kg); the other two groups were respectively injected with KA or KB (40 mg/kg) at 10 min after injection of heat-killed E. coli(1.1×10^10 CFU/Kg); the total injection of each animal was 200 μl per 20 g body weight; orbital venous blood of mice was collected at time point of 0, 2, 4, 8, 12, 24, 48 and 72 h after injection; LPS level was assayed by kinetic turbidimetric limulus test, and TNF-α was assayed by ELISA.\n28.1 Methods: Kunming mice were randomly divided into two groups, and there were 56 mice in each group; heat-killed E. coli was diluted to make 1.0×10^9 CFU/ml suspension, and KB was dissolved to 6 mg/ml with sterile saline; caudal vein injection was adopted; medium group was injected with heat-killed Escherichia coli (0.2 ml per 20 g body weight) and sterile saline (0.2 ml per 20 g body weight); KB treatment groups were injected with heat-killed E. coli suspension S (0.2 ml per 20 g body weight) and KB (0.2 ml per 20 g body weight). Orbital venous blood of mice in medium group and KB treatment group was collected at time point of 0, 4, 8, 12, 24, 48 and 72 h after injection, the specific methods are: mice were killed by cervical dislocation, and immersed in 75% ethanol for skin degerming; the eye of mouse was removed, and blood was collected into a 1.5 ml EP tube; 10 μl blood were added into 190 μl nonpyrogenic water; solution was kept standing for 5-10 min for neutral sedimentation, and centrifuged at 1000 rpm for 10 min; the supernatant was transferred into a new centrifuge tube and stored at −20° C. for further detection; the rest was keep standing until aggregation and serum precipitation, then centrifuged at 3000 rpm for 10 min; the supernatant was transferred into a new centrifuge tube and stored at −20° C. for further detection;\n(1) Detection of LPS levels in plasma: 10 μl plasma sample was dissolved in 190 μl sterile saline and mixed. Detection of LPS levels was performed according to the operating procedure of EDS-99 Bacterial Endotoxin Detecting system. Result was expressed by means of mean±standard deviation.\n(2) Detection of serum cytokine levels: Because of the small blood volume of mouse, serum was diluted 2 times for detection. Detection of the TNF-α concentration was performed according to the manufacturer's instructions of ELISA kit. Result was expressed by means of mean±standard deviation."}, "[2]": {"system": "RAW264.7 cells", "assay": "Cell vitality of RAW264.7 cells (MTT assay)", "assay_type": "cell-based, murine", "settings": "24 h; for RAW264.7 cells vitality (OD550): 200 μg/ml, p>0.05", "experimental": "(1) Influence on vitality of RAW264.7 cells: According to embodiment 7, for the purpose of experiment a medium group, KB group (25, 50, 100, 200, 400 and 800 μM), a LPS (100 ng/ml)+KB (0, 100, 200 and 400 μM) group and a CpG DNA (10 μg/ml)+KB (0, 100, 200 and 400 μM) group were established; MTT was dissolved with PBS to make 5 mg/ml solution and filtered, which served as stock solution and stored at −20° C. for further detection; RAW264.7 cells were adjusted to 1×10^6/ml in DMEM medium, added into 96-well plates (200 μl per well), and cultured at 37° C. in a 5% CO2 humidified incubator for 4 h; the specified concentration of LPS, CpG DNA and KB were separately loaded according to the grouping; cells were cultured at 37° C. in a 5% CO2 humidified incubator for 24 h, centrifuged at 1000 rpm/min for 5 min; the supernatant was sucked and discarded; each well was added with 180 μl cell culture medium and 20 μl MTT stock solution, then cultured at 37° C. in a 5% CO2 humidified incubator for 4 h, and centrifuged at 1000 rpm/min for 10 min; then the supernatant was sucked and discarded; each well was added with 150 μl DMSO, and shook for 10 min for the dissolution of the crystals; RAW264.7 cells vitality was expressed as absorbance values at 550 nm of each well, which were instantly assayed by ELIASA."}},
  "data": [
    {"molecule": "O=C(CCc1ccc(O)c(O)c1)NCCCNCCCCNCCCNC(=O)CCc1ccc(O)c(O)c1", "note": "[KA, Kukoamine A]", "values": [
      {"measurement": "LPS level in mice blood", "setting": "[1]", "result": "significantly decreased"},
      {"measurement": "TNF-α level in mice blood", "setting": "[1]", "result": "significantly decreased"},
      {"measurement": "RAW264.7 cells vitality (OD550)", "setting": "[2]", "result": "no influence on RAW264.7 cells vitality"}
    ]},
    {"molecule": "NCCCN(CCCCNCCCNC(=O)CCc1ccc(O)c(O)c1)C(=O)CCc1ccc(O)c(O)c1", "note": "[KB, Kukoamine B]", "values": [
      {"measurement": "LPS level in mice blood", "setting": "[1]", "result": "significantly decreased"},
      {"measurement": "TNF-α level in mice blood", "setting": "[1]", "result": "significantly decreased"},
      {"measurement": "LPS levels in mice plasma vs heat-killed E. coli control group", "setting": "[1]; sublethal heat-killed E. coli, KB 6 mg/ml, 0.2 ml per 20 g, 4, 8, 12, 24 and 48 h, p<0.05 or p<0.01", "result": "significantly lower"},
      {"measurement": "TNF-α levels in mice serum vs heat-killed E. coli control group", "setting": "[1]; sublethal heat-killed E. coli, KB 6 mg/ml, 0.2 ml per 20 g, 4, 8, 12 and 24 h, p<0.01", "result": "significantly lower"},
      {"measurement": "RAW264.7 cells vitality (OD550)", "setting": "[2]", "result": "no influence on RAW264.7 cells vitality"},
      {"measurement": "absorbance values (vitality of RAW264.7 cells) vs medium group", "setting": "[2]; KB 25-800 μM, or KB 0-400 μM plus LPS 100 ng/ml or CpG DNA 10 μg/ml", "result": "no statistic difference on absorbance values"}
    ]}
  ]
}
